Values of other authors, collected in PMC6978833 (ACS Central Science, 2019).

Details: N3 of base in TAT / CGC triplets

Structure (SMILES)	pKa (N3 protonation)
Cc1c[nH]c(=O)[nH]c1=O [thymine]	~10
Nc1cc[nH]c(=O)n1 [cytosine]	~6.5
